Assay [1] concerns NCI-H292. In words: Cytotoxicity MTT assay, NCI-H292. In kind it is cell-based, human. The text has this:
(§1) Table 2 below lists the IC50 values of representative working examples from the assay described and the corresponding cytotoxicity data (MTT assay).
For orientation: Formazan colour is commonly taken as a measure of viable cells.

The subject of assay [2] is KPL4. In words: Cytotoxicity MTT assay, KPL4. The class given is cell-based.
From the text: as §1

The mark [3] stands for this setting: Homo sapiens, NCI-H292, MTT assay.

The values below come from patent US11071788B2, “Antibody drug conjugates of kinesin spindel protein (KSP) inhibitors with antiB7H3-antibodies” (BAYER PHARMA AKTIENGESELLSCHAFT, priority 2015, dated 2021).

Counter-ions that a name gives are not always drawn.

For the compound `CC(C)(C)[C@H](c1cc(-c2cc(F)ccc2F)cn1Cc1ccccc1)N(CC[C@H](N)C(=O)NCCNC(=O)CNC(=O)C(CC(=O)O)SC[C@H](N)C(=O)O)C(=O)CO` (single isomer, unassigned) [Example M16], the half-inhibitory concentration (IC50) – broadly, the concentration that gives 50% inhibition – came to 143 nM in assay [1] (setting [3]) and 195 nM in assay [2] (KPL4, MTT assay).

Consider `CC(C)(C)[C@H](c1cc(-c2cc(F)ccc2F)cn1Cc1ccccc1)N(CCCN)C(=O)CSC[C@H](NC(=O)CCOCCOCCOCCOCCNC(=O)CNC(=O)CC(SC[C@H](N)C(=O)O)C(=O)O)C(=O)O` (stereo partly drawn) [Example M20, (1R,4R,27R,33R)-1-Amino-32-(3-aminopropyl)-33-[1-benzyl-4-(2,5-difluorophenyl)-1H-pyrrol-2-yl]-34,34-dimethyl-6,9,25,31-tetraoxo-13,16,19,22-tetraoxa-3,29-dithia-7,10,26,32-tetraazapentatriacontane-1,4,27-tricarboxylic acid/trifluoroacetic acid (1:2)], for which the IC50 in assay [1] (setting [3]) was found to be 149 nM; in assay [2] (KPL4, MTT assay), 213 nM.

Take `CC(C)(C)[C@H](c1cc(-c2cc(F)ccc2F)cn1Cc1ccccc1)N(CC[C@H](N)C(=O)NCCNC(=O)CNC(=O)C(CC(=O)O)SC[C@H](N)C(=O)O)C(=O)CO` (single isomer, unassigned) [Example M15]: the half-inhibitory concentration (IC50) turned out to be 133 nM in assay [1] (setting [3]) and 169 nM in assay [2] (KPL4, MTT assay).

As for `CC(C)(C)[C@H](c1cc(-c2cc(F)ccc2F)cn1Cc1ccccc1)N(CC[C@H](N)C(=O)NCCNC(=O)CSC[C@H](N)C(=O)O)C(=O)CO` [Example M7, S-(2-{[2-({(2S)-2-Amino-4-[{(1R)-1-[1-benzyl-4-(2,5-difluorophenyl)-1H-pyrrol-2-yl]-2,2-dimethylpropyl}(glycoloyl)amino]butanoyl}amino)ethyl]amino}-2-oxoethyl)-L-cysteine/trifluoroacetic acid (1:1)], the concentration for half-maximal inhibition (IC50) turned out to be 22.2 nM in assay [1] (setting [3]) and 92.5 nM in assay [2] (KPL4, MTT assay).

Consider `CC(C)(C)[C@H](c1cc(-c2cc(F)ccc2F)cn1Cc1ccccc1)N(CC[C@H](N)C(=O)NCCC(=O)N[C@H](CCC(=O)O)C(=O)O)C(=O)CO` [Example M24, N-{(2S)-2-Amino-4-[{(1R)-1-[1-benzyl-4-(2,5-difluorophenyl)-1H-pyrrol-2-yl]-2,2-dimethylpropyl}(glycoloyl)amino]butanoyl}-beta-alanyl-D-glutamic acid-trifluoroacetic acid], for which the IC50 in assay [1] (setting [3]) is 167 nM; in assay [2] (KPL4, MTT assay) it was 500 nM.

Consider `CC(C)(C)[C@H](c1cc(-c2cc(F)ccc2F)cn1Cc1ccccc1)N(CCCN)C(=O)CSC[C@H](N)C(=O)O` [Example M11, S-{2-[(3-Aminopropyl){(1R)-1-[1-benzyl-4-(2,5-difluorophenyl)-1H-pyrrol-2-yl]-2,2-dimethyl-propyl}amino]-2-oxoethyl}-L-cysteine/trifluoroacetic acid (1:2)], for which, in assay [1] (setting [3]), it took 0.0432 nM to reach half-maximal inhibition (IC50).

On to `CC(C)(C)[C@H](c1cc(-c2cc(F)ccc2F)cn1Cc1ccccc1)N(CC[C@H](N)C(=O)NCCNC(=O)CNC(=O)CC(SC[C@H](N)C(=O)O)C(=O)O)C(=O)CO` (single isomer, unassigned) [Example M14], for which the 50% inhibitory concentration (IC50) is 174 nM in assay [1] (MTT assay) and 182 nM in assay [2] (MTT assay).

As for `CC(C)(C)[C@H](c1cc(-c2cc(F)ccc2F)cn1Cc1ccccc1)N(CCCN)C(=O)CSC[C@H](NC(=O)CCC(=O)O)C(=O)O` [Example M12, 4-{[(1R)-2-({2-[(3-Aminopropyl) {(1R)-1-[1-benzyl-4-(2,5-difluorophenyl)-1H-pyrrol-2-yl]-2,2-dimethylpropyl}amino]-2-oxoethyl}sulphanyl)-1-carboxyethyl]amino}-4-oxobutanoic acid/trifluoroacetic acid (1:1)], half-maximal inhibition in assay [1] (setting [3]) (IC50) was put at 33 nM.

Consider `CC(C)(C)[C@H](c1cc(-c2cc(F)ccc2F)cn1Cc1ccccc1)N(CC[C@H](N)C(=O)NCCNC(=O)CNC(=O)CC(SC[C@H](N)C(=O)O)C(=O)O)C(=O)CO` (single isomer, unassigned) [Example M13], for which the IC50 in assay [1] (setting [3]) stood at 152 nM; in assay [2] (KPL4, MTT assay), 169 nM.

With `CC(C)(C)[C@H](c1cc(-c2cc(F)ccc2F)cn1Cc1ccccc1)N(CC[C@H](N)C(=O)NCCOCCN1C(=O)CC(SC[C@H](N)C(=O)O)C1=O)C(=O)CO` (stereo partly drawn) [Example M4, S-(1-{2-[2-({(2S)-2-Amino-4-[{(1R)-1-[1-benzyl-4-(2,5-difluorophenyl)-1H-pyrrol-2-yl]-2,2-dimethylpropyl}(glycoloyl)amino]butanoyl}amino)ethoxy]ethyl}-2,5-dioxopyrrolidin-3-yl)-L-cysteine/trifluoroacetic acid (1:1)], the IC50 in assay [1] (setting [3]) was determined as 44.3 nM; in assay [2] (KPL4, MTT assay), 176 nM.

For `CC(C)(C)[C@H](c1cc(-c2cc(F)ccc2F)cn1Cc1ccccc1)N(CCCN)C(=O)CO` [Example M9, N-(3-Aminopropyl)-N-{(1R)-1-[1-benzyl-4-(2,5-difluorophenyl)-1H-pyrrol-2-yl]-2,2-dimethylpropyl}-2-hydroxyacetamide], the IC50 in assay [1] (Homo sapiens, NCI-H292) is 0.774 nM; in assay [2] (KPL4) it was 0.257 nM.

Consider `CC(C)(C)[C@H](c1cc(-c2cc(F)ccc2F)cn1Cc1ccccc1)N(CC[C@H](N)C(=O)NCCNC(=O)CN1C(=O)CC(SC[C@H](N)C(=O)O)C1=O)C(=O)CO` (stereo partly drawn) [Example M1, S-[1-(2-{[2-({(2S)-2-Amino-4-[{(1R)-1-[1-benzyl-4-(2,5-difluorophenyl)-1H-pyrrol-2-yl]-2,2-dimethylpropyl}(glycoloyl)amino]butanoyl}amino)ethyl]amino}-2-oxoethyl)-2,5-dioxopyrrolidin-3-yl]-L-cysteine/trifluoroacetic acid (1:1)], for which the IC50 came out at 500 nM in assay [1] (setting [3]) and 500 nM in assay [2] (KPL4, MTT assay).

`CC(C)(C)[C@H](c1cc(-c2cc(F)ccc2F)cn1Cc1ccccc1)N(CC[C@H](N)C(=O)NCCC(=O)NCCCC[C@H](N)C(=O)O)C(=O)CO` [Example M19, N^6—(N-{(2S)-2-Amino-4-[{(1R)-1-[1-benzyl-4-(2,5-difluorophenyl)-1H-pyrrol-2-yl]-2,2-dimethylpropyl}(glycoloyl)amino]butanoyl}-beta-alanyl)-L-lysine/trifluoroacetic acid (1:1)] displayed an IC50 in assay [1] (setting [3]) of 121 nM.

In turn, `CC(C)(C)[C@H](c1cc(-c2cc(F)ccc2F)cn1Cc1ccccc1)N(CC[C@H](N)C(=O)NCCNC(=O)CC[C@H](N)C(=O)O)C(=O)CO` [Example M18, N-[2-({(2S)-2-Amino-4-[{(1R)-1-[1-benzyl-4-(2,5-difluorophenyl)-1H-pyrrol-2-yl]-2,2-dimethylpropyl}(glycoloyl)amino]butanoyl}amino)ethyl]-L-glutamine/trifluoroacetic acid (1.1)] came in with an IC50 in assay [1] (setting [3]) of 35.5 nM.

Compound `CC(C)(C)[C@H](c1cc(-c2cc(F)ccc2F)cn1Cc1ccccc1)N(CC[C@H](N)C(=O)O)C(=O)CO` [Example M17, (2S)-2-Amino-4-[{(1R)-1-[1-benzyl-4-(2,5-difluorophenyl)-1H-pyrrol-2-yl]-2,2-dimethylpropyl}(glycoloyl)amino]butanoic acid hydrochloride (1.1)] gave an IC50 in assay [1] (setting [3]) of 7.35 nM. This IC50 is about 4.8-fold lower than that of the compound before.

`CC(C)(C)[C@H](c1cc(-c2cc(F)ccc2F)cn1Cc1ccccc1)N(CC[C@H](N)C(=O)NCCNC(=O)CNC(=O)C(CC(=O)O)SC[C@H](N)C(=O)O)C(=O)CO` (mixture of isomers) [Example M27, 4-[(2-{[2-({(2S)-2-Amino-4-[{(1R)-1-[1-benzyl-4-(2,5-difluorophenyl)-1H-pyrrol-2-yl]-2,2-dimethylpropyl}(glycoloyl)amino]butanoyl}amino)ethyl]amino}-2-oxoethyl)amino]-3-{[(2R)-2-amino-2-carboxyethyl]sulfanyl}-4-oxobutanoic acid-trifluoroacetic acid (1:1)] showed a 50% inhibitory concentration (IC50) in assay [1] (setting [3]) of 276 nM.
